Experimental data: patent US8906953B2, “Pyrrolidine substitute flavones for the treatment of inflammatory disorders” (Piramal Enterprises Limited, priority 2010, dated 2014)

Tests used:
p38 MAP kinase = biological target: T1, p38 MAP kinase (Homo sapiens, UniProt Q16539); test: p38 MAP kinase inhibition, western blot in anisomycin-stimulated Jurkat cells; type: cell-based; details: 0.1 μM, anisomycin 10 μg/mL 30 minutes
T1 construct: endogenous in cells; host or cells: Jurkat T-cells (ATCC)
Method: The method for identifying inhibitors of p38 mitogen-activated protein (MAP) Kinase was designed as in reference, Journal of Lipid Research, 1999, 40, 1911-1919, the disclosure of which is incorporated herein by reference for the teaching of the assay.
Human Jurkat T-cells from American Type Culture Collection (ATCC) were cultivated in Rosewell Park Memorial Institute (RPMI) medium supplemented with 10% fetal bovine serum (FBS), penicillin (100 U/mL) and streptomycin (100 μg/mL) at 37° C. in humidified atmosphere of 95% air-5% CO2. Culture medium was changed every 2-3 days and always 24 hours before harvest. RPMI medium, FBS, CellLytic, anti-β-actin, sodium orthovanadate and anisomycin were purchased from Sigma-Aldrich (USA). TNF-α was purchased from R & D Systems (USA). Complete Protease inhibitor cocktail was procured from Roche.
Jurkat cells were preincubated with vehicle or the compound of example 3 (0.1 μM) for 1 hour in a 37° C., CO2 incubator. For MAPK experiments, the cells were stimulated with anisomycin (10 μg/mL) for 30 minutes. SB 203580 was used as a standard (1 μM). […] Aliquots of the resulting extracts were analyzed for their protein content using the Coomassie Plus Protein Assay Reagent (Pierce) following manufacturer's instructions. […]

TNF-α = test: Spontaneous TNF-α release from synovial cells of RA patients; type: cell-based; details: Homo sapiens, Synovial cell, freshly isolated synovial cells from RA patients, 16 hours
Method: Cytokine production in synovial cells obtained from rheumatoid arthritis patients undergoing knee replacement surgery, was measured as per the method described in reference, Lancet, 1989, 29, 244-247, the disclosure of which is incorporated herein by reference for the teaching of the assay. The synovial membrane tissue was digested by incubating at 37° C. for 3 hours in an atmosphere of 5% CO2, in Roswell Park Memorial Institute (RPMI) medium containing penicillin-G (100 U/mL), streptomycin (100 μg/mL), amphotericin B (50 ng/mL) (GIBCO), 1.33 mg/mL collagenase Type I (Worthington Biochemical Corporation, New Jersey, USA), 0.5 μg/mL DNAse Type I (SIGMA) and 8.33 U/mL heparin (Biological E. Limited, India). The digested tissue was then filtered through a membrane (mesh size 70 micron) (SIGMA), the cells were washed 3 times and suspended in complete medium (RPMI supplemented with 5% FCS and 5% human serum). The cell concentration was adjusted to 1×10^6 cells/mL. The viability as determined by trypan blue dye exclusion was uniform Ly≧98%. The cell suspension (100 μL) was added to the wells of a 96-well culture plate. […] The final concentration of DMSO was adjusted to 0.5%. The vehicle (0.5° A) DMSO) was used as control. SB 203580 (20 μM) was used as a standard. The plates were incubated for 16 hours at 37° C. in 5% CO2 atmosphere. […]

T1 sequence (Q16539 whole entry): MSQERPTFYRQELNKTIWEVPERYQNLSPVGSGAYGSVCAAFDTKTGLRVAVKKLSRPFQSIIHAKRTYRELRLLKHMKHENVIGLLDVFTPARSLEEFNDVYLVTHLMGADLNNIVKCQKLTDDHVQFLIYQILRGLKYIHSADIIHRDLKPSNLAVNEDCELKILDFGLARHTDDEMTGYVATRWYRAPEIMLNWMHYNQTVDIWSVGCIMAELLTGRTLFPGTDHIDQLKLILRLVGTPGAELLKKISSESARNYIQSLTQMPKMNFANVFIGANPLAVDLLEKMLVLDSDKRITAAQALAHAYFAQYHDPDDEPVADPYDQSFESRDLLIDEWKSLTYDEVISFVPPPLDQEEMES

- p38 MAP kinase inhibition (western blot) (p38 MAP kinase): not an inhibitor of p38 MAP kinase
- IC50 (TNF-α): 20 µM
Compound: CN1CC[C@@H](c2c(O)cc(O)c3c(=O)cc(-c4ccc(C(F)(F)F)cc4Cl)oc23)[C@@H]1CO.Cl [Compound of example 3, (+)-trans-2-(2-Chloro-4-trifluoromethyl-phenyl)-5,7-dihydroxy-8-(2-hydroxymethyl-1-methyl-pyrrolidin-3-yl)-chromen-4-one hydrochloride]
